The values that follow come from patent publication US11427558B1, “Indazoles and azaindazoles as LRRK2 inhibitors” (ESCAPE Bio, Inc., priority 2019, dated 2022).

SMILES strings stand for the structures.

The target of assay [1] is Recombinant G2019S-LRRK2 protein (Homo sapiens (Human), UniProt Q5S007, G2019S). Put plainly: LRRK2 kinase activity, LanthaScreen TR-FRET assay (G2019S). The note with it: LRRKtide 400 nM, 25 μM ATP, 60 min. The assay is classed as biochemical. As to the method:
(§1) LRRK2 kinase activity was measured using a LanthaScreen™ Kinase Activity Assay from ThermoFisher Scientific. Recombinant wild type or G2019S-LRRK2 protein (Life Technologies, PR8604B or PV4881, respectively), was incubated with a fluorescein-labeled peptide substrate called LRRKtide that is based upon ezrin/radixin/moesin (ERM) (Life Technologies, PV4901) in the presence of ATP and serially diluted compound. […] Compound-dependent inhibition of the TR-FRET signal was used to generate a concentration-response curve for IC50 determination.
(§2) After 60 min incubation at room temperature, the reaction was stopped by addition of 10 μL of 2× stop solution containing a final concentration of 2 nM anti-pERM antibody and 10 mM EDTA. […] The ratio of the 520 nm and 495 nm emission was used to analyze the data.

The target of assay [2] is Recombinant wild type LRRK2 protein (Homo sapiens (Human), UniProt Q5S007). Put plainly: LRRK2 kinase activity, LanthaScreen TR-FRET assay (wild type). The assay is classed as biochemical. The note with it: LRRKtide 400 nM, 25 μM ATP, 60 min; read-out: LRRK2 WT IC50. As to the method:
as §1, §2

Sequence of Recombinant G2019S-LRRK2 protein (Q5S007 whole entry G2019S): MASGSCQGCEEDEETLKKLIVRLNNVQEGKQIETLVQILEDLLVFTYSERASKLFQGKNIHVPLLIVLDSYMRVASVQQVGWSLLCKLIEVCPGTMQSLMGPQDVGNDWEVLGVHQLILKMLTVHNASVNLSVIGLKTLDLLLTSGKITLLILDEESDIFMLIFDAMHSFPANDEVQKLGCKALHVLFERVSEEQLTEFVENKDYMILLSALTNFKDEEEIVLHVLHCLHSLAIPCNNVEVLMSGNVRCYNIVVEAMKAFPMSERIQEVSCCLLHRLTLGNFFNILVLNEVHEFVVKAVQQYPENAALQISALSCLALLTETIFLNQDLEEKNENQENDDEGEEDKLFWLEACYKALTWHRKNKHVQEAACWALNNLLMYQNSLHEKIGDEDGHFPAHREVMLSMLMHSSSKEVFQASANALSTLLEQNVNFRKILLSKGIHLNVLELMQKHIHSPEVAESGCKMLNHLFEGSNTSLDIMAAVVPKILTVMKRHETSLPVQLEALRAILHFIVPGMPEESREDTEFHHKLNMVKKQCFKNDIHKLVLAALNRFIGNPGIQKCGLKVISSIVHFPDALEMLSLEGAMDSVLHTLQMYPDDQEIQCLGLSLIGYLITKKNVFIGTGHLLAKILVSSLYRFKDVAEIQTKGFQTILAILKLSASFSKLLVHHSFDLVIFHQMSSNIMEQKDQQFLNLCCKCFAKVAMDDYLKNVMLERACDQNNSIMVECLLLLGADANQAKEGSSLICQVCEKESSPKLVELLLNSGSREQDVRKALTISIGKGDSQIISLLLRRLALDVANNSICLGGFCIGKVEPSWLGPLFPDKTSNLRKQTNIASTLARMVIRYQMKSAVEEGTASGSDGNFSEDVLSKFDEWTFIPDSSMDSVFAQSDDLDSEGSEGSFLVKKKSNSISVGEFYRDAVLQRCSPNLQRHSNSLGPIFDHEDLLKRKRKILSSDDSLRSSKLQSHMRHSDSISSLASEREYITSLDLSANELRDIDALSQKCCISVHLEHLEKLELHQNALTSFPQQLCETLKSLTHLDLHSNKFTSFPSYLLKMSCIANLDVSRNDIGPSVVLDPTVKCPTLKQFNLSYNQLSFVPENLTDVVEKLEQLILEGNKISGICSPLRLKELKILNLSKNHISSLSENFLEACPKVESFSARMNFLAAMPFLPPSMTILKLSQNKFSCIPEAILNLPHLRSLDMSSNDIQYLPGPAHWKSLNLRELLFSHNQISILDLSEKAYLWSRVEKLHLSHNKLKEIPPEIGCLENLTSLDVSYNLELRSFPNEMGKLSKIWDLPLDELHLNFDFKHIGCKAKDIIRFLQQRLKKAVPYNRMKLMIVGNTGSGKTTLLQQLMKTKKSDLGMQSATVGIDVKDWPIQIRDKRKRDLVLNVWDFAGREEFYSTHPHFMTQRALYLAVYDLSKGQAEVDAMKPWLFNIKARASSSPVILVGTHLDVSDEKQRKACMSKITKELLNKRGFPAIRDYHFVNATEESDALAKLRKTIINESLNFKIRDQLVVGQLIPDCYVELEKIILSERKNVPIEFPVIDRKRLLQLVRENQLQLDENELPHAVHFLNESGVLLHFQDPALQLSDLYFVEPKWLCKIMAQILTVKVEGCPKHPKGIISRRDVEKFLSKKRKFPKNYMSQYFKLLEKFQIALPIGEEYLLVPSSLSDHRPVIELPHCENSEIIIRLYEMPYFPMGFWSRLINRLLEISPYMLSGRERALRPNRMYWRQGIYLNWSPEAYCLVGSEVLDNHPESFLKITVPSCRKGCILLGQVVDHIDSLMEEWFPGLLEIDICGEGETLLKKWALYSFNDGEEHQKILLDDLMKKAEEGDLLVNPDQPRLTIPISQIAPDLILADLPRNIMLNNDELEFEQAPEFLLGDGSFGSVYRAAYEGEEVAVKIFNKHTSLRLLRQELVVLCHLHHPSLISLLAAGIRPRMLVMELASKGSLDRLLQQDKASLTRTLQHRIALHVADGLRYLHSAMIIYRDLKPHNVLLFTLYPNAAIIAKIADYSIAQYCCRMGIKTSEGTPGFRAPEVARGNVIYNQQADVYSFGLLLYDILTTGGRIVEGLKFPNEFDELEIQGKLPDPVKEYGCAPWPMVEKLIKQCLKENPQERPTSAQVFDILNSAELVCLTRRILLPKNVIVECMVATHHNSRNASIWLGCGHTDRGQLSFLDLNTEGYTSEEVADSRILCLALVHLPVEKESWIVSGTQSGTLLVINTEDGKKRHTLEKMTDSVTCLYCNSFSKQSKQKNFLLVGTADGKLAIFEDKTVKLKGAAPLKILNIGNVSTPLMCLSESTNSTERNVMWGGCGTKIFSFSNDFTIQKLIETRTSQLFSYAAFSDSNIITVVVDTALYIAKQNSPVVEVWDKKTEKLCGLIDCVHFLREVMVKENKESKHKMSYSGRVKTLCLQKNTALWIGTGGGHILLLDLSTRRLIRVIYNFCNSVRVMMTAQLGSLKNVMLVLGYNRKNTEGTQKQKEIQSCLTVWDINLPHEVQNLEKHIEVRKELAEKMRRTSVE
Sequence of Recombinant wild type LRRK2 protein (Q5S007 whole entry): as the sequence (Q5S007 whole entry G2019S) above, with S2019G counted along it

`COc1ccc(-c2n[nH]c3ccc(NC(=O)c4ncc(C#N)cc4C)cc23)cn1` [Example 52, 5-Cyano-N-(3-(6-methoxypyridin-3-yl)-1H-indazol-5-yl)-3-methylpicolinamide]: the IC50 in assay [1] is < 100 nM; in assay [2] it was 100 to 1000 nM.
The corresponding values for `COc1cccc(-c2n[nH]c3ccc(NC(=O)c4ncc(C#N)cc4C)cc23)c1` [Example 53, 5-Cyano-N-(3-(3-methoxyphenyl)-1H-indazol-5-yl)-3-methylpicolinamide] are < 100 nM and 100 to 1000 nM.
The corresponding values for `Cc1cc(C#N)cnc1C(=O)Nc1ccc2[nH]nc(-c3cccc(OC(F)(F)F)c3)c2c1` [Example 54, 5-Cyano-3-methyl-N-(3-(3-(trifluoromethoxy)phenyl)-1H-indazol-5-yl)picolinamide] are 100 to 1000 nM and 1000 to 10000 nM.
The like results for `Cc1ccc(-c2n[nH]c3ccc(NC(=O)c4ncc(C#N)cc4C)cc23)cn1` [Example 55, 5-Cyano-3-methyl-N-(3-(6-methylpyridin-3-yl)-1H-indazol-5-yl)picolinamide] were, in that order, < 100 nM and 100 to 1000 nM.
Take `Cc1ccc(-c2n[nH]c3ccc(NC(=O)c4ncc(C#N)cc4C)cc23)cc1` [Example 56, 5-Cyano-3-methyl-N-(3-(p-tolyl)-1H-indazol-5-yl)picolinamide]: the values for the IC50 in assay [1] and in assay [2] were < 100 nM and 100 to 1000 nM, respectively.
The like results for `Cc1cc(C#N)cnc1C(=O)Nc1ccc2[nH]nc(-c3cnn(C)c3)c2c1` [Example 57, 5-Cyano-3-methyl-N-(3-(1-methyl-1H-pyrazol-4-yl)-1H-indazol-5-yl)picolinamide] were, in that order, < 100 nM and < 100 nM.
The corresponding values for `Cc1cccc(-c2n[nH]c3ccc(NC(=O)c4ncc(C#N)cc4C)cc23)c1` [Example 58, 5-Cyano-3-methyl-N-(3-(m-tolyl)-1H-indazol-5-yl)picolinamide] are < 100 nM and 100 to 1000 nM.
The corresponding values for `Cc1cc(C#N)cnc1C(=O)Nc1ccc2[nH]nc(-c3cccc(C(F)(F)F)c3)c2c1` [Example 59, 5-Cyano-3-methyl-N-(3-(3-(trifluoromethyl)phenyl)-1H-indazol-5-yl)picolinamide] are < 100 nM and 100 to 1000 nM.
With `Cc1cc(C#N)cnc1C(=O)Nc1ccc2[nH]nc(-c3ccc(C(F)(F)F)nc3)c2c1` [Example 60, 5-Cyano-3-methyl-N-(3-(6-(trifluoromethyl)pyridin-3-yl)-1H-indazol-5-yl)picolinamide], the figures for the IC50 in assay [1] and in assay [2] were 100 to 1000 nM and 1000 to 10000 nM, respectively.
The like results for `Cc1cc(F)cc(-c2n[nH]c3ccc(NC(=O)c4ncc(C#N)cc4C)cc23)c1` [Example 61, 5-Cyano-N-(3-(3-fluoro-5-methylphenyl)-1H-indazol-5-yl)-3-methylpicolinamide] were, in that order, < 100 nM and 100 to 1000 nM.
In the case of `Cc1cc(C#N)cnc1C(=O)Nc1ccc2[nH]nc(-c3cccc(C4CC4)c3)c2c1` [Example 62, 5-cyano-N-(3-(3-cyclopropylphenyl)-1H-indazol-5-yl)-3-methylpicolinamide], the IC50 in assay [1] is < 100 nM; in assay [2] it was 100 to 1000 nM.
The like results for `Cc1ccc(-c2n[nH]c3ccc(NC(=O)c4ncc(C#N)cc4C)cc23)cc1F` [Example 63, 5-Cyano-N-(3-(3-fluoro-4-methylphenyl)-1H-indazol-5-yl)-3-methylpicolinamide] were, in that order, < 100 nM and 100 to 1000 nM.
The corresponding values for `N#Cc1cnc(C(=O)Nc2ccc3[nH]nc(-c4ccoc4)c3c2)c(C(F)F)c1` [Example 64, 5-Cyano-3-(difluoromethyl)-N-(3-(furan-3-yl)-1H-indazol-5-yl)picolinamide] are < 100 nM and 100 to 1000 nM.
The corresponding values for `N#Cc1cnc(C(=O)Nc2ccc3[nH]nc(-c4ccoc4)c3c2)s1` [Example 65, 5-Cyano-N-(3-(furan-3-yl)-1H-indazol-5-yl)thiazole-2-carboxamide] are < 100 nM and < 100 nM.
For the molecule `N#Cc1cnc(C(=O)Nc2ccc3[nH]nc(-c4ccoc4)c3c2)cc1Cl` [Example 66, 4-Chloro-5-cyano-N-(3-(furan-3-yl)-1H-indazol-5-yl)picolinamide], the IC50 in assay [1] and in assay [2] was 100 to 1000 nM in each case.
In the case of `Cc1c(C#N)cnc(C(=O)Nc2ccc3[nH]nc(-c4ccoc4)c3c2)c1C` [Example 67, 5-Cyano-N-(3-(furan-3-yl)-1H-indazol-5-yl)-3,4-dimethylpicolinamide], the IC50 in assay [1] and in assay [2] was < 100 nM each time.
With `COc1cncc(-c2n[nH]c3ccc(NC(=O)c4ncc(C#N)cc4C)cc23)c1` [Example 68, 5-Cyano-N-(3-(5-methoxypyridin-3-yl)-1H-indazol-5-yl)-3-methylpicolinamide], the IC50 in assay [1] was < 100 nM; in assay [2] it was 100 to 1000 nM.
The corresponding values for `COc1cc(C#N)cnc1C(=O)Nc1ccc2[nH]nc(-c3ccoc3)c2c1` [Example 69, 5-Cyano-N-(3-(furan-3-yl)-1H-indazol-5-yl)-3-methoxypicolinamide] are < 100 nM and 100 to 1000 nM.
Take `Cc1cc(C#N)cnc1C(=O)Nc1ccc2[nH]nc(-c3ccc(N4CCOCC4)cc3)c2c1` [Example 70, 5-Cyano-3-methyl-N-(3-(4-morpholinophenyl)-1H-indazol-5-yl)picolinamide]: the IC50 was < 100 nM in assay [1] and 100 to 1000 nM in assay [2].
The corresponding values for `Cc1cc(C#N)cnc1C(=O)Nc1ccc2[nH]nc(-c3ccc4ocnc4c3)c2c1` [Example 71, N-(3-(Benzo[d]oxazol-5-yl)-1H-indazol-5-yl)-5-cyano-3-methylpicolinamide] are < 100 nM and 100 to 1000 nM.
The corresponding values for `COc1c(C#N)cccc1C(=O)Nc1ccc2[nH]nc(-c3ccoc3)c2c1` [Example 72, 3-Cyano-N-(3-(furan-3-yl)-1H-indazol-5-yl)-2-methoxybenzamide] are < 100 nM and < 100 nM.
The corresponding values for `Cc1cc(C#N)cnc1C(=O)Nc1ccc2[nH]nc(-c3ccsc3)c2c1` [Example 73, 5-Cyano-3-methyl-N-(3-(thiophen-3-yl)-1H-indazol-5-yl)picolinamide] are < 100 nM and 100 to 1000 nM.
Turning to `Cc1cc(-c2n[nH]c3ccc(NC(=O)c4ncc(C#N)cc4C)cc23)ccn1` [Example 74, 5-Cyano-3-methyl-N-(3-(2-methylpyridin-4-yl)-1H-indazol-5-yl)picolinamide], the IC50 in assay [1] and in assay [2] was < 100 nM in each case.
For `CCc1c(C#N)cccc1C(=O)Nc1ccc2[nH]nc(-c3ccoc3)c2c1` [Example 75, 3-Cyano-2-ethyl-N-(3-(furan-3-yl)-1H-indazol-5-yl)benzamide], the IC50 in assay [1] and in assay [2] was < 100 nM throughout.
For `Cc1cc(C#N)cnc1C(=O)Nc1ccc2[nH]nc(-c3coc(C#N)c3)c2c1` [Example 76, 5-Cyano-N-(3-(5-cyanofuran-3-yl)-1H-indazol-5-yl)-3-methylpicolinamide], the IC50 in assay [1] and in assay [2] was < 100 nM throughout.
In the case of `N#Cc1cccc(C(=O)Nc2ccc3[nH]nc(-c4ccoc4)c3c2)c1F` [Example 77, 3-Cyano-2-fluoro-N-(3-(furan-3-yl)-1H-indazol-5-yl)benzamide], the IC50 in assay [1] and in assay [2] was < 100 nM in each case.
`Cc1cc(C#N)cc(C(=O)Nc2ccc3[nH]nc(-c4ccoc4)c3c2)n1` [Example 78, 4-Cyano-N-(3-(furan-3-yl)-1H-indazol-5-yl)-6-methylpicolinamide]: the IC50 is < 100 nM in assay [1] and 100 to 1000 nM in assay [2].
As for `N#Cc1ccnc(C(=O)Nc2ccc3[nH]nc(-c4ccoc4)c3c2)c1F` [Example 79, 4-Cyano-3-fluoro-N-(3-(furan-3-yl)-1H-indazol-5-yl)picolinamide], the IC50 in assay [1] and in assay [2] was 100 to 1000 nM each time.
Take `Cc1cc(C#N)cnc1C(=O)Nc1cc(C)c2[nH]nc(-c3ccoc3)c2c1` [Example 80, 5-Cyano-N-(3-(furan-3-yl)-7-methyl-1H-indazol-5-yl)-3-methylpicolinamide]: the IC50 in assay [1] is 100 to 1000 nM; in assay [2] it was 1000 to 10000 nM.
The corresponding values for `Cc1nn(C)c(C#N)c1C(=O)Nc1ccc2[nH]nc(-c3ccoc3)c2c1` [Example 81, 5-Cyano-N-(3-(furan-3-yl)-1H-indazol-5-yl)-1,3-dimethyl-1H-pyrazole-4-carboxamide] are < 100 nM and < 100 nM.
The like results for `N#Cc1cc(C(=O)Nc2ccc3[nH]nc(-c4ccoc4)c3c2)no1` [Example 82, 5-Cyano-N-(3-(furan-3-yl)-1H-indazol-5-yl)isoxazole-3-carboxamide] were, in that order, < 100 nM and < 100 nM.
The like results for `CCc1cc(C#N)cnc1C(=O)Nc1ccc2[nH]nc(-c3ccoc3)c2c1` [Example 83, 5-Cyano-3-ethyl-N-(3-(furan-3-yl)-1H-indazol-5-yl)picolinamide] were, in that order, < 100 nM and 100 to 1000 nM.
As for `C=Cc1cc(C#N)cnc1C(=O)Nc1ccc2[nH]nc(-c3ccoc3)c2c1` [Example 84, 5-Cyano-N-(3-(furan-3-yl)-1H-indazol-5-yl)-3-vinylpicolinamide], the IC50 was < 100 nM in assay [1] and 100 to 1000 nM in assay [2].
The corresponding values for `Cc1cc(C(=O)Nc2ccc3[nH]nc(-c4ccoc4)c3c2)nc(C)c1C#N` [Example 85, 5-cyano-N-(3-(furan-3-yl)-1H-indazol-5-yl)-4,6-dimethylpicolinamide] are < 100 nM and 1000 to 10000 nM.
